“And” between values parts separate entries of the source, which are not always exact repeats. Identical values can stand only once. Counter-ions that a name gives are not always drawn.
System: human subjects
Experiment: Repeated measures knee extension strength test (Muscle Strength Test) during and after limb immobilization, placebo-controlled study
Assay type: in vivo
Details: for Muscle strength, knee extension, Baseline Mean: baseline pre-dose; for Muscle strength, knee extension, LSMean change from baseline, Day 14: Day 14 (brace off); for Muscle strength, knee extension, LSMean change from baseline, Day 29: P 0.2 vs placebo; for Mean Difference Compound 1 vs Placebo, LSMean change in muscle strength, Day 29: P 0.2
From the text: A protocol for the experimental evaluation of the impact of a PPARδ agonist on muscle atrophy during and following the end of limb immobilization is provided below. In the protocol, reference to Compound 1 refers to (E)-[4-[3-(4-Fluorophenyl)-3-[4-[3-(morpholin-4-yl)propynyl]phenyl]allyloxy]-2-methyl-phenoxy]acetic acid sodium salt.
A randomized, investigator and subject blind, sponsor open, placebo-controlled study evaluating the possible impact of Compound 1 on the recovery of muscle atrophy from limb immobilization is described. Subjects will be leg immobilized using a knee brace (30 degrees flexion on the left leg to allow driving) and will be provided with walking crutches such that there is no weight bearing on the immobilized leg. Subjects will be enrolled and randomized to receive Compound 1 or placebo (both referenced as Study Drug in this protocol). The study consists of five periods termed SCR (screening period, Day −35 to −3), BL (baseline period: Day −1 to Day 1 [am]), IMM (limb immobilization and treatment with study drug, Day 1 [pm] to Day 14), TRE (treatment with study drug without limb immobilization, Day 15 to Day 29) and REC (no treatment recovery period, Day 29 to Day 42). There will be six testing days during the study: Day 1 (baseline), Day 14 (brace off day), Day 16 (48 hours after brace off), Day 21, Day 29 (last dose) and Day 42 (final study visit). On each testing day, subjects will undergo the combination of several testing procedures in sequential order as listed: 1) Morning activity plus approximately 500-step walk (when domiciled at Clinical Research Unit [CRU]); 2) Blood sampling; 3) Standardized breakfast (Study Drug administration will be immediately before the breakfast except for Day 42); 4) Muscle biopsy; 5) Leg muscle strength tests (MST) and modified physical performance test (PPT); and 6) Magnetic resonance imaging (MRI) of the thigh to evaluate thigh muscle volume/cross-section area (CSA).
Two treatment groups in this study: • a) Treatment group A: Treated with 100 mg of Compound 1 twice daily from Day 1 to Day 29. • b) Treatment group B: Treated with placebo twice daily from Day 1 to Day 29.
The maximal amount of weight that the participant is able to lift for one repetition (1-RM) will be measured on a Hoist multi-station weight machine for the following exercises: leg press, knee extension, knee flexion, and bench press. Isokinetic (Cybex) testing of knee extension/flexion will be done to assess deficiencies in rapid strength recruitment. Subjects will be seated on the testing device and strapped in to prevent the pelvis from sliding forward. The movement arm will be adjusted to the subject's leg length and the weight of the leg will be determined. Isokinetic testing of the knee extensors and flexors will be performed at 0°/s, 60°/s and 180°/s. Four to five repetitions at each mode will be performed with the highest two values used for data analysis. Subjects will be familiarized with these procedures during the screening visit.
An experimental study was conducted to evaluate the impact of Compound 1, a PPARδ agonist, on muscle atrophy during and following the end of limb immobilization in human subjects. Except where specifically noted otherwise below, all methods were conducted as described in the protocol above.
Methods were generally conducted as described in the protocol. The study was designed as a double-blind, randomized, placebo-controlled, parallel study in healthy male subjects. A total of N=24 subjects were randomized. The number of randomized subjects is lower than originally planned. A total of N=21 subjects had data available for statistical analysis.
Multiple imputation statistical methods were used to preserve the intent-to-treat (ITT) principle while coping with invalid and missing data.
Primary analysis was executed as defined in the study protocol and the statistical analysis plan (see protocol described above). […]

`Cc1cc(OC/C=C(/c2ccc(F)cc2)c2ccc(C#CCN3CCOCC3)cc2)ccc1OCC(=O)O` [Compound 1, (E)-[4-[3-(4-Fluorophenyl)-3-[4-[3-(morpholin-4-yl)propynyl]phenyl]allyloxy]-2-methyl-phenoxy]acetic acid sodium salt] was tested, and the “Change in muscle strength compared to baseline, difference to placebo” value (14 days following the end of immobilization (i.e., day 28)) was “no longer significantly different”, the “Muscle strength, knee extension, Baseline Mean” value (Table 1 primary analysis, multiple imputation for missing and invalid data, n = 10, healthy males, raw data in lbs) was 195 and the “Muscle strength, knee extension, LSMean change from baseline, Day 14” value (Table 1 primary analysis, multiple imputation, 100 mg twice daily, n = 10, P 0.012 vs placebo) was −2.9. For the same compound, the “Mean Difference Compound 1 vs Placebo, LSMean change in muscle strength, Day 14” value (Table 1 primary analysis, multiple imputation, P 0.012) was 36, the “Muscle strength, knee extension, LSMean change from baseline, Day 21 (primary)” value (Table 1 primary analysis, multiple imputation, 100 mg twice daily, n = 10, P 0.004 vs placebo) was 36.8 and the “Mean Difference Compound 1 vs Placebo, LSMean change in muscle strength, Day 21 (primary)” value (Table 1 primary analysis, multiple imputation, P 0.004) was 36.5. For the same compound, the “Muscle strength, knee extension, LSMean change from baseline, Day 29” value (Table 1 primary analysis, multiple imputation, 100 mg twice daily, n = 10) was 30.4, the “Mean Difference Compound 1 vs Placebo, LSMean change in muscle strength, Day 29” value (Table 1 primary analysis, multiple imputation) was 21.9 and the “Mean Difference Compound 1 vs Placebo, Baseline mean muscle strength” value (Table 1 primary analysis, multiple imputation, P 0.3) was 19. The “Muscle strength, knee extension, Baseline Mean” value (Table 2 supportive analysis, no imputation, excluding protocol violators, n = 9) was 191 lbs, the “Muscle strength, knee extension, LSMean change from baseline, Day 14” value (Table 2 supportive analysis, no imputation, 100 mg twice daily, n = 9, P 0.04 vs placebo) was −1.9 lbs and the “Mean Difference Compound 1 vs Placebo, LSMean change in muscle strength, Day 14” value (Table 2 supportive analysis, no imputation, P 0.04) was 36.3 lbs. For the same compound, the “Muscle strength, knee extension, LSMean change from baseline, Day 21 (primary)” value (Table 2 supportive analysis, no imputation, 100 mg twice daily, n = 9, P 0.048 vs placebo) was 31.5 lbs, the “Mean Difference Compound 1 vs Placebo, LSMean change in muscle strength, Day 21 (primary)” value (Table 2 supportive analysis, no imputation, P 0.048) was 31.3 lbs and the “Muscle strength, knee extension, LSMean change from baseline, Day 29” value (Table 2 supportive analysis, no imputation, 100 mg twice daily, n = 9) was 32.5 lbs. For the same compound, the “Mean Difference Compound 1 vs Placebo, LSMean change in muscle strength, Day 29” value (Table 2 supportive analysis, no imputation) was 19.4 lbs, the “Mean Difference Compound 1 vs Placebo, Baseline mean muscle strength” value (Table 2 supportive analysis, no imputation, P 0.4) was 23 lbs and the “Primary muscle strength variable of analysis vs placebo” value (human subjects, N=21 with data available) was “statistically significant superiority over placebo”. For the same compound, the “Rate of loss of muscle strength during immobilization” value (human subjects, compared to their baseline measurements) was “reduced to almost zero”, the “Mean change from baseline to day 21 in muscle strength relative to placebo” value (human subjects, day 21) was “showed superiority” and the “Muscle atrophy during immobilization (rate of loss of muscle strength relative to placebo)” value (human subjects, during immobilization) was “effective in reducing muscle atrophy during immobilization”. The “Atrophy following immobilization (rate of return of muscle strength to baseline relative to placebo)” value (human subjects, following immobilization) was “reducing atrophy following immobilization”, the “Maximum muscle strength on the knee extension (KE), raw value, Day 1” value (individual Treated subjects A-I, Day 1 baseline, pre-dose, sodium salt) was 220.5 Lbs and 145.5 Lbs and 215.5 Lbs and 265.5 Lbs and 123 Lbs and 260.5 Lbs and 168 Lbs and 163 Lbs and 160.5 Lbs and the “Maximum muscle strength on the knee extension (KE), raw value, Day 14” value (individual Treated subjects A-I, Day 14, day brace is removed, 100 mg twice daily, sodium salt) was 200.5 Lbs and 195 Lbs and 163 Lbs and 255.5 Lbs and 120.5 Lbs and 225.5 Lbs and 158 Lbs and 185.5 Lbs and 170.5 Lbs. The “Maximum muscle strength on the knee extension (KE), raw value, Day 21” value (individual Treated subjects A-I, Day 21, primary endpoint, 100 mg twice daily, sodium salt) was 270.5 Lbs (3×) and 225.5 Lbs and 213 Lbs and 158 Lbs and 183 Lbs and 205.5 Lbs, the “Maximum muscle strength on the knee extension (KE), raw value, Day 29” value (individual Treated subjects A-I, Day 29, final assessment during treatment period, sodium salt) was 270.5 Lbs (2×) and 235.5 Lbs and 225.5 Lbs and 213 Lbs and 150.5 Lbs and 183 Lbs and 230.5 Lbs and the “Maximum muscle strength on the knee extension (KE), raw value, Day 42” value (individual Treated subjects A-I, Day 42, safety follow-up after end of treatment, sodium salt) was 270.5 Lbs (3×) and 265.5 Lbs and 238 Lbs and 158 Lbs and 183 Lbs and 220.5 Lbs.
